Measurements taken from patent US9522121B2, “Aqueous-core lipid nanocapsules for encapsulating hydrophilic and/or lipophilic molecules” (UNIVERSITE D'ANGERS, priority 2007, dated 2016).
One block for each molecule: values may come before it.

Experiments:
NIH/3T3 cells = assay: Cytotoxicity of particles (P) without active ingredient, cell survival by MTT test; assay type: cell-based, Mus musculus; set-up: unit: % of control; details: DMSO, control = 100.00
Protocol: The cytotoxicity of particles (P) prepared according to 1.2 hereabove—without any active ingredient encapsulated (hereafter called NCB)—was assessed on NIH/3T3 cells (fibroblasts of mice Mus musculus). The […] were exposed to various particle concentrations, during 4, 24, 48 or 72 hours. The cell survival was determined by the MTT test.

[1] = Encapsulation yield, indirect quantification in external water after centrifugation; assay type: physicochemical; details: for encapsulation yield (plateau): hydrophilic molecule in aqueous core, tp = 2 h, highest monomer (TDI) contents
Source text: (i) Hydrophilic materials, eventually, have to be shared out into the w/o nanoemulsions water droplets, and it may be done right from the start included in the water phase of the macro-emulsions preparations. Another higher effective manner consists in injecting a very small volume (no more than 2% (v./v.)) of very concentrated aqueous solution, in the microemulsion maintained at the PIT, after the temperature cycling, and before the isopentane dilution. The droplet injected in the (still) stirred microemulsion, very rapidly integrates the aqueous part of the bicontinuous network. As a result of the oil dilution, the nanoemulsion immediately forms, allowing a very homogeneous dispersion in oil of the injected hydrophilic molecule. Incorporating the hydrophilic species through this original manner, eventually prevents the molecules degradation during processing potentially due to the temperature cycling treatment. The hydrophilic model molecules were chosen with very different molecular weight: The first one is a labile dye, methylene blue (MB), the second is a protein, the bovin serum albumin fluorecein isothiocyanate labeled (BSA-FITC) and the last one is a fluorescent compound, Doxorubicin Chlorhydrate (DOX), which is an anti-cancer drug.
(ii) On the other hand, the lipophilic species were introduced in the oil phase of the nanoemulsion, after the chosen time of polymerization (to maximally prevent the potential interactions with the monomer), and before the stage of isopentane evaporation. Thereby, after the complete isopentane evaporation, the lipophilic added materials will be equally shared onto the droplets enclosed in the residual mineral oil, that is, trapped in the amorphous oil/non-ionic surfactant matrix. It finally appears as a marker of the residual mineral oil location, and determining a significant encapsulation yield should support the proposed multi-functional water/oil structure. […] It is important to note here, that these processes of nanocapsule formulation containing hydrophilic and lipophilic agents can be still considered as only involving a low quantity of energy (often called ‘low-energy’ methods). […]
All the quantifications were performed following an indirect method, after separating the external water to the nanocapsules by centrifugation (30 min, 14500 rpm), it was freeze-dried (RP2V, SGD, Le Coudray Saint-Germer, France) to ensure the destruction of the potentially remaining nanocapsules (and also to prevent their additional light adsorption in the quantification process). Next, the freeze-dried samples are solubilized in dichloromethane (DCM), and the different incorporated molecules except DOX which are present in the external water are simply quantified using a Spectrophotometer UV-visible Uvikon 922 Spectrophotometer (Bio-Tek Koutron instruments, Saint-Quentin-en-Yvelines, France). DOX was quantified using a spectrofluorimeter (Fluoroskan Ascent FL, type 374, Thermo Electron Corporation, Finland). […]
Owing to the real challenge that constitutes the encapsulation of hydrophilic agent into nanocapsules themselves dispersed in aqueous continuous phase, the first result will concern the extent in which the selected hydrophilic species, methylene blue and BSA-FITC, can be encapsulated into such colloids. The molecules incorporation during the nanoemulsion generation step as well as the molecule quantification for determining the encapsulation yield, follow the above-described procedures. […]

[2] = Doxorubicin release kinetics from particles (P), dialysis against PBS; assay type: physicochemical; details: DOX-loaded particles (P), dialysis 15 kDa membrane, PBS pH 7.4, 37° C.
Protocol: To establish the drug release kinetics (see FIG. 8), 2 mL of freshly prepared suspension containing DOX-loaded particle (P), enclosed into a dialysis 15 kDa membrane (Spectra/Por® Membranes, Fisher Bioblock Scientific, Illkirch, France), were added to 40 mL of phosphate buffered saline (PBS, pH 7.4) from Sigma. The flack was weakly mechanically stirred (125 rpm) in darkness, at 37° C. (in a boiler, Julabo SW22, JULABO Labortechnik GmbH, Seelbach, Germany). Next, 500 μL of release medium were collected at specified time points and the DOX concentrations were determined by spectrofluorimetry, as previously described. This collected volume was systematically replaced by the same volume of fresh PBS for insuring the “sink” experimental conditions.

Molecule: C[S+](C)[O-] [DMSO]
cell survival (MTT test), mean (NIH/3T3 cells; 4 H exposure): 46.75
cell survival (MTT test), mean (NIH/3T3 cells; 24 H exposure): 10.22
cell survival (MTT test), mean (NIH/3T3 cells; 48 H exposure): 4.79
cell survival (MTT test), mean (NIH/3T3 cells; 72 H exposure): 5.00

yield of encapsulated doxorubicin ([1]; in aqueous droplets (no monomer)): 30%
yield of encapsulated doxorubicin ([1]; in polymeric nanocapsules (interfacial polymerization with tolylene 2,4-diisocyanate)): 70%
release with time (maximum given by the curve fit) [2]: ~100%
Molecule: COc1cccc2c1C(=O)c1c(O)c3c(c(O)c1C2=O)C[C@@](O)(C(=O)CO)C[C@@H]3O[C@H]1C[C@H](N)[C@H](O)[C@H](C)O1 [DOX, Doxorubicin Chlorhydrate]

encapsulation yield (plateau) [1]: about 0.9
Molecule: CN(C)c1ccc2nc3ccc(=[N+](C)C)cc-3sc2c1 [MB, Methylene Blue]

encapsulation yield ([1]; lipophilic molecule in oil shell, simultaneously encapsulated with MB, tp 2 hours, no influence of monomer amount): around 0.92
Molecule: Oc1ccc2ccccc2c1N=Nc1ccc(N=Nc2ccccc2)cc1 [RS, red Soudan III]

Molecule: Bovine Serum Albumin-Fluorescein Isothiocyanate labeled [BSA-FITC]
encapsulation yield (plateau) [1]: about 0.9
